According to the PolyMetriX glass transition set:
± gives the standard deviation of the reports.

Row | Structure (SMILES) | glass transition temperature [°C]
1 | *CC(*)(C)C(=O)OCCCCCCc1ccc(/N=N/c2ccc(OC(F)(F)F)cc2)cc1 (repeat unit) | 194.50
2 | *CCCCCOc1cccc(NC(=O)c2ccc(C(=O)Nc3cccc(O*)c3)cc2)c1 (repeat unit) | 135.00
3 | *Oc1ccc(NC(=O)CCCCCCCCCCC(=O)Nc2ccc(*)cc2)cc1 (repeat unit) | 150.00
4 | *c1ccc(Oc2ccc(C(=O)c3ccc(Oc4ccc(-c5nnc(*)c6c(-c7ccccc7)c(-c7ccc8ccccc8c7)c(-c7ccc8ccccc8c7)c(-c7ccccc7)c56)cc4)cc3)cc2)cc1 (repeat unit) | 312.00
5 | *c1cccc(Oc2cccc(Oc3cccc(N4C(=O)c5ccc(Oc6ccc7c(c6)C(=O)N(*)C7=O)cc5C4=O)c3)c2)c1 (repeat unit) | 193.00 ± 8.5
6 | */C=C/c1c(OC(=O)c2ccc(C(=O)Oc3cccc4ccc(*)nc34)cc2)ccc2ccccc12 (repeat unit) | 175.00
7 | *Nc1cccc2c(NC(=O)Nc3cc(NC(*)=O)cc(C(=O)Nc4ccc5c(c4)C(=O)c4ccccc4C5=O)c3)cccc12 (repeat unit) | 178.00
8 | *CCCCCCCNC(=O)CCCCC(=O)N* (repeat unit) | 55.00
9 | *c1ccc(Oc2cccc(N3C(=O)c4ccc(Oc5ccc6cc(Oc7ccc8c(c7)C(=O)N(*)C8=O)ccc6c5)cc4C3=O)c2)cc1 (repeat unit) | 225.00
10 | *c1nc(C)nc(N(CCCCCCCCCCN(*)c2ccccc2)c2ccccc2)n1 (repeat unit) | 48.00
11 | *C(=O)Nc1cccc(S(=O)(=O)c2cccc(NC(=O)c3ccc4c(c3)C(=O)N(c3ccc(-c5sc(-c6ccc(N7C(=O)c8ccc(*)cc8C7=O)cc6)c(-c6ccccc6)c5-c5ccccc5)cc3)C4=O)c2)c1 (repeat unit) | 320.00
12 | *C(=O)Nc1ccc(Oc2ccccc2-c2ccccc2Oc2ccc(NC(=O)c3ccc4c(c3)C(=O)N(c3ccc(C)c(N5C(=O)c6ccc(*)cc6C5=O)c3)C4=O)cc2)cc1 (repeat unit) | 266.00
13 | *Nc1ccccc1CCc1ccc(NC(=O)NCCCCCCNC(*)=O)cc1 (repeat unit) | 150.00
14 | *CCCCCOC(=O)NCC(F)(F)C(F)(F)C(F)(F)C(F)(F)CNC(=O)O* (repeat unit) | 33.00
15 | *CC(*)(C)C(=O)OCCBr (repeat unit) | 52.00
16 | *CC(CO*)(CSC(C)C)CSC(C)C (repeat unit) | -9.00
17 | *C1CCC(CC2CCC(N3C(=O)c4ccc(Oc5ccc6c(c5)C(=O)N(*)C6=O)cc4C3=O)C(C)C2)CC1C (repeat unit) | 250.00
18 | *Nc1ccc(Cc2ccc(NC(=O)CCCCCCCCC(*)=O)cc2)cc1 (repeat unit) | 160.00
19 | *CC(COc1ccc(C2CCCC(CC)(c3ccc(O*)cc3)C2)cc1)OC(C)=O (repeat unit) | 107.00
20 | *CCCCCCCCCCCCNC(=O)CCCCCCCCCCCCCCC(=O)N* (repeat unit) | 46.00
21 | *c1ccc2c(c1)C(=O)N(c1c(C)cc(C(c3cc(C)c(N4C(=O)c5ccc(C(*)(C(F)(F)F)C(F)(F)F)cc5C4=O)c(C)c3)c3cccc4ccccc34)cc1C)C2=O (repeat unit) | 314.00
22 | *O[Si](C)(C)CCCNC(=O)C(=O)NCCC[Si](*)(C)C (repeat unit) | -46.48

Row | Structure (SMILES) | glass transition temperature [°C]
23 | *OC(=O)OC1COC2C(*)COC12 (repeat unit) | 140.00
24 | *NNC(=O)c1ccccc1C(=O)NCCCCCCNC(=O)c1ccccc1C(*)=O (repeat unit) | 224.50
25 | *Oc1ccc(OC(=O)Oc2ccc(C(*)=O)cc2)cc1 (repeat unit) | 74.00
26 | *C(=O)c1ccc(N(*)C)cc1 (repeat unit) | 197.00
27 | *Oc1ccc(Oc2ccc(C(=O)c3cccc(NC(=O)CCCCCCCCC(=O)Nc4cccc(C(=O)c5ccc(*)cc5)c4)c3)cc2)cc1 (repeat unit) | 144.00
28 | *c1ccc(Oc2ccc(P(C)(=O)c3ccc(Oc4ccc(C5(*)OC(=O)c6ccccc65)cc4)cc3)cc2)cc1 (repeat unit) | 263.00
29 | *CCCCCCCCNC(=O)CCCCCCCCCCCCCCC(=O)N* (repeat unit) | 52.00
30 | *O[Si](C)(C)Oc1ccc(*)cc1 (repeat unit) | 90.00
31 | *CCCCCCN1C(=O)C(C)C(SCCOCCSC2C(=O)N(CCCCCCN3C(=O)CC(C)(SCCOCCSC4(C)CC(=O)N(*)C4=O)C3=O)C(=O)C2C)C1=O (repeat unit) | 78.00
32 | *c1cccc(OCCCCCCCCCCCOC(=O)c2cccc(C(=O)OCCCCCCCCCCCOc3cccc(-c4nnc(*)s4)c3)c2)c1 (repeat unit) | 15.00
33 | *Oc1cc(C(C)(C)C)c(Oc2ccc(C(=O)c3ccc(*)cc3)cc2)cc1C(C)(C)C (repeat unit) | 206.00
34 | */C=C(\C#N)C(=O)NC1CCCCC1NC(=O)/C(C#N)=C/c1ccc(/C=C/c2ccc(N(CC)Cc3ccccc3CN(CC)c3ccc(/C=C/c4ccc(*)s4)cc3)cc2)s1 (repeat unit) | 195.00
35 | *CCCCCCN(C)c1ccc(C(=O)c2ccc(N(*)C)cc2)cc1 (repeat unit) | 75.50
36 | *CC(*)(C)C(=O)OCCCCCCOc1ccc(-c2ccc(C#N)cc2)cc1 (repeat unit) | 63.00
37 | *CCCCCCNC(=O)/C=C(\C)C(=O)N* (repeat unit) | 94.00
38 | *C(=O)Nc1ccc(Oc2ccc(C3(c4ccc(Oc5ccc(NC(=O)c6ccc7c(c6)C(=O)N(c6ccc(Oc8ccc(N9C(=O)c%10ccc(*)cc%10C9=O)cc8)cc6)C7=O)cc5)cc4)NC(=O)c4ccccc43)cc2)cc1 (repeat unit) | 320.00
39 | *CC(*)c1ccc(OCCC)cc1 (repeat unit) [Poly(p-n-propoxy styrene)] | 70 ± 3.5
40 | *CC(*)(C)C(=O)OCCCCCCC(F)(F)C(F)(F)C(F)(F)C(F)(F)C(F)(F)C(F)(F)C(F)(F)C(F)(F)C(F)(F)C(F)(F)C(F)(F)C(F)(F)F (repeat unit) | 84.00
41 | *CC(*)C(F)(F)C(F)(F)C(F)(F)F (repeat unit) [Poly[(heptafluoropropyl)ethylene] ] | 58 ± 0.6
42 | *CCCCCCCCCCOC(=O)NCCCCCCNC(=O)O* (repeat unit) | 55.00
43 | *c1ccc2c(c1)C(=O)N(c1cc(C(=O)Nc3ccc(C(c4ccc(NC(=O)c5ccc(C)c(N6C(=O)c7ccc(C(*)(C(F)(F)F)C(F)(F)F)cc7C6=O)c5)cc4)(C(F)(F)F)C(F)(F)F)cc3)ccc1C)C2=O (repeat unit) | 293.50
44 | *Oc1ccc(C(CCCC)(CCCC)c2ccc(OC(*)=O)cc2)cc1 (repeat unit) | 113.00

Row | Structure (SMILES) | glass transition temperature [°C]
45 | *Nc1cccc2c(NC(=O)Nc3cc(NC(*)=O)cc(C(=O)Nc4cccc5c4C(=O)c4ccccc4C5=O)c3)cccc12 (repeat unit) | 185.00
46 | *CC(*)c1cc(C(C)(C)C)ccc1C (repeat unit) | 87.00
47 | *CCCCN1C(=O)c2ccc(C(=O)Oc3ccc(-c4ccc(OC(=O)c5ccc6c(c5)C(=O)N(*)C6=O)cc4)cc3)cc2C1=O (repeat unit) | 126.00
48 | *c1cccc(*)c1 (repeat unit) | 104.93
49 | *O[Si](*)(C)CCCOC(=O)c1cc(OC(=O)c2ccc(OCCOCCOCCOCCOCCOCCOC)cc2)ccc1OC(=O)c1ccc(OCCOCCOCCOCCOCCOCCOC)cc1 (repeat unit) | -46.00
50 | *c1cccc(C(=O)Nc2ccc(Oc3ccc(NC(=O)c4cccc(N5C(=O)c6ccc(-c7ccc8c(c7)C(=O)N(*)C8=O)cc6C5=O)c4)cc3)cc2)c1 (repeat unit) | 253.00
51 | *CC(CS(=O)(=O)CC)O* (repeat unit) | 57.00
52 | *Oc1ccc(Sc2ccc(OC3(F)C(*)(F)C(F)(F)C3(F)F)cc2)cc1 (repeat unit) | 78.00
53 | *CC(*)c1ccccn1 (repeat unit) [Poly(o-vinyl pyridine) ] | 104 ± 1.1
54 | *CCCCCCCCCCCOC(=O)Nc1ccc(NC(=O)OCCCCCCCCCCCOc2ccc(-c3ccc(O*)cc3)cc2)c(C)c1 (repeat unit) | 77.00
55 | *Oc1ccc(CC(NC(=O)Cc2ccc(OC(=O)CCCCCCCCC(*)=O)cc2)C(=O)OCCCCCCCC)cc1 (repeat unit) | 16.00
56 | *CCNC(=O)c1ccccc1O* (repeat unit) | 84.00
57 | *c1ccc(Oc2ccc(C3(c4ccc(Oc5ccc(-c6cccc(*)n6)cc5C(F)(F)F)cc4)c4ccccc4-c4ccccc43)cc2)c(C(F)(F)F)c1 (repeat unit) | 182.50
58 | *CC(*)C(F)(F)F (repeat unit) [Poly(3,3,3-trifluoropropylene) ] | 27 ± 2.3
59 | *NC1CCC(CC2CCC(NC(=O)CCCCCCCCCCCCC(*)=O)CC2)CC1 (repeat unit) | 131.00
60 | *ON(C(F)(F)C(*)(F)F)C(F)(F)C(F)(F)Br (repeat unit) | -17.00
61 | *c1ccc(Oc2ccc(-c3ccc(Oc4ccc(N5C(=O)c6ccc(Oc7ccc(Oc8ccc(Oc9ccc%10c(c9)C(=O)N(*)C%10=O)cc8)cc7)cc6C5=O)cc4)cc3)cc2)cc1 (repeat unit) | 211.00
62 | *CCCCCCC(=O)Oc1ccc(OC(=O)c2ccc3c(c2)C(=O)N(*)C3=O)cc1 (repeat unit) | 74.31
63 | *CC(*)C(=O)OC1CCCCCCCCCCC1 (repeat unit) | 37.00
64 | *c1ccc(NC(=O)CN2C(=O)c3ccc(C(c4ccc5c(c4)C(=O)N(CC(=O)Nc4ccc(-c6nnc(*)o6)cc4)C5=O)(C(F)(F)F)C(F)(F)F)cc3C2=O)cc1 (repeat unit) | 280.00
65 | *c1cccc(OCCCCCCCCCOc2cccc(N3C(=O)c4ccc(-c5ccc6c(c5)C(=O)N(*)C6=O)cc4C3=O)c2)c1 (repeat unit) | 132.00
66 | *CCC1CC(*)C2C3CC(c4ccc(COC(C)CC)cc4)C(C3)C12 (repeat unit) | 139.00
